Laboratory results as given in patent US7868013B2, “Cycloalkyl substituted pyrimidinediamine compounds and their uses” (Rigel Pharmaceuticals, Inc., priority 2004, dated 2011).
Where a name gives a salt, the structure may show the parent alone. Read-outs that look alike come from different tables or passages of the source.

Key:
A549 (lung carcinoma) = assay: In vitro antiproliferation assay, A549 cells (TABLE 1 6 point assay; TABLE 2); assay type: cell-based; details: Homo sapiens
Description: (§1) Certain compounds were tested against other cell types for their ability to inhibit proliferation in standard antiproliferation assays.

[1] = test system: H1299 (non-small cell lung carcinoma); assay: In vitro antiproliferation assay, H1299 cells (TABLE 1 6 point assay; TABLE 2); assay type: cell-based; details: Homo sapiens
Description: as §1

[2] = A549, A549 cells, 6 point assay, read-out: A549, 6pt (IC50, inhibition of proliferation)
[3] = NCI-H1299, H1299 cells, 6 point assay, read-out: H1299, 6pt (IC50, inhibition of proliferation)
[4] = A549, 6 point assay, A549 cells, read-out: IC50, A549 cells
[5] = NCI-H1299, 6 point assay, H1299 cells, read-out: IC50, H1299 cells

IC50 (A549 (lung carcinoma); [2]) | IC50 [1, 3] | IC50 (A549 (lung carcinoma); [4]) | IC50 [1, 5] | IC50 (A549 (lung carcinoma); A549, A549, read-out: In Vitro IC50) | SMILES
 |  | ≤ 100 nM | ≤ 100 nM |  | Cc1cc(Nc2ncc(F)c(N[C@H]3[C@@H](C(N)=O)[C@@H]4C=C[C@H]3C4)n2)ccc1NC1CCN(C)CC1 [compound 272, (1R,2R,3S,4S)-N4-(3-Aminocarbonylbicyclo[2.2.1]hept-5-en-2-yl)-5-fluoro-N2-(3-methyl-4-(1-methylpiperidin-4-ylamino)phenyl]-2,4-pyrimidinediamine]
 |  | ≤ 100 nM | ≤ 100 nM |  | COc1cc(Nc2ncc(F)c(NC3C4C=CC(C4)C3C(N)=O)n2)ccc1N1CCN(C)CC1 (racemic) [compound 256, Racemic-(2-exo,3-exo)-N4-(3-aminocarbonylbicyclo[2.2.1]hept-5-en-2-yl)-5-fluoro-N2-[3-methoxy-4-(4-methylpiperazin-1-yl)phenyl]-2,4-pyrimidinediamine]
 |  | ≤ 100 nM | ≤ 100 nM |  | CN1CCN(c2ccc(Nc3ncc(F)c(NC4C5C=CC(C5)C4C(N)=O)n3)cc2F)CC1 (racemic) [compound 239, Racemic-(2-exo,3-exo)-N4-(3-aminocarbonylbicyclo[2.2.1]hept-5-en-2-yl)-5-fluoro-N2-[3-fluoro-4-(4-methylpiperazin-1-yl)phenyl]-2,4-pyrimidinediamine]
 |  | ≤ 100 nM | ≤ 100 nM |  | Cc1cc(Nc2ncc(F)c(NC3C4C=CC(C4)C3C(N)=O)n2)ccc1N1CCN(C2CCCCC2)CC1 (racemic) [compound 245, Racemic-(2-exo,3-exo)-N4-(3-aminocarbonylbicyclo[2.2.1]hept-5-en-2-yl)-N2-[4-(4-cyclohexylpiperazin-1-yl)-3-methylphenyl]-5-fluoro-2,4-pyrimidinediamine]
 |  | ≤ 100 nM | ≤ 100 nM |  | CN1CCN(c2cccc(Nc3ncc(F)c(NC4C5C=CC(C5)C4C(N)=O)n3)c2)CC1 (racemic) [compound 231, Racemic-(2-exo,3-exo)-N4-(3-aminocarbonylbicyclo[2.2.1]hept-5-en-2-yl)-5-fluoro-N2-[3-(4-methylpiperazin-1-yl)]phenyl-2,4-pyrimidinediamine]
 |  | 1000 to 10000 nM | 1000 to 10000 nM |  | CN1CCN(C(=O)CCCc2ccc(Nc3ncc(F)c(N[C@H]4CCC[C@H]4C(N)=O)n3)cc2)CC1 (racemic) [compound 278, Racemic-cis-N4-(2-aminocarbonylcyclopent-1-yl)-5-fluoro-N2-{4-[(4-methylpiperazin-1-yl)-butan-1-one-4-yl]phenyl}-2,4-pyrimidinediamine]
 |  | 1000 to 10000 nM | 1000 to 10000 nM |  | Cc1cc(Nc2ncc(F)c(NC34CC5CC(CC3C5)C4)n2)ccc1N1CCN(C)CC1 [compound 259, 5-Fluoro-N2-[3-methyl-4-(4-methylpiperazin-1-yl)phenyl]-N4-(3-noradamantyl)-2,4-pyrimidinediamine]
 |  | ≤ 100 nM | ≤ 100 nM |  | Cc1cc(Nc2ncc(F)c(NC3C4C=CC(C4)C3C(N)=O)n2)ccc1N1CCN(C(C)C)CC1 (racemic) [compound 232, Racemic-(2-exo,3-exo)-N4-(3-aminocarbonylbicyclo[2.2.1]hept-5-en-2-yl)-5-fluoro-N2-[4-(4-isopropylpiperazin-1-yl)-3-methylphenyl]-2,4-pyrimidinediamine]
 |  | ≤ 100 nM | ≤ 100 nM |  | CN1CCN(c2ccc(Nc3ncc(F)c(NC4C5C=CC(C5)C4C(N)=O)n3)cc2C#N)CC1 (racemic) [compound 243, Racemic-(2-exo,3-exo)-N4-(3-aminocarbonylbicyclo[2.2.1]hept-5-en-2-yl)-N2-[3-cyano-4-(4-methylpiperazin-1-yl)phenyl]-5-fluoro-2,4-pyrimidinediamine]

More lines, now with the values behind:

SMILES | IC50 (A549 (lung carcinoma); [2]) | IC50 [1, 3] | IC50 (A549 (lung carcinoma); [4]) | IC50 [1, 5] | IC50 (A549 (lung carcinoma); A549, A549, read-out: In Vitro IC50)
Cc1ccc(Nc2ncc(F)c(NC3C4C=CC(C4)C3C(N)=O)n2)cc1OCCN1CCOCC1 (racemic) [compound 104, Racemic-(2-exo, 3-exo)-N4-(3-aminocarbonylbicyclo[2.2.1]hept-5-en-2-yl)-5-fluoro-N2-[4-methyl-3-(N-morpholinyl)-2-ethyleneoxyphenyl]-2,4-pyrimidinediamine] | ≤ 100 nM | ≤ 100 nM |  |  | 
CN1CCC(Oc2ccc(Nc3ncc(F)c(N[C@H]4[C@@H](C(N)=O)[C@@H]5C=C[C@H]4C5)n3)cc2Cl)CC1 [compound 152, (1R,2R,3S,4S)-N4-(3-Aminocarbonylbicyclo[2.2.1]hept-5-en-2-yl)-N2-[3-chloro-4-(1-methylpiperidin-4-yloxy)phenyl]-5-fluoro-2,4-pyrimidinediamine] | ≤ 100 nM | ≤ 100 nM |  |  | 
Cc1ccc(Nc2ncc(F)c(N[C@H]3[C@@H](C(N)=O)[C@@H]4C=C[C@H]3C4)n2)cc1OCCN1CCOCC1 [compound 115, (1R,2R,3S,4S)-N4-(3-Aminocarbonylbicyclo[2.2.1]hept-5-en-2-yl)-5-fluoro-N2-[4-methyl-3-(2-morpholinoethyloxy)phenyl]-2,4-pyrimidinediamine] | ≤ 100 nM | ≤ 100 nM |  |  | 
CNC(=O)C1C2C=CC(C2)C1Nc1nc(Nc2ccc(N3CCN(C)CC3)c(C)c2)ncc1F (racemic) [compound 166, Racemic-(2-exo,3-exo)-N4-[3-(N-methyl)aminocarbonylbicyclo[2.2.1]hept-5-en-2-yl)-5-fluoro-N2-[3-methyl-4-(4-methylpiperazin-1-yl)phenyl]-2,4-pyrimidinediamine] | ≤ 100 nM | ≤ 100 nM |  |  | 
CN1CCC(Oc2ccc(Nc3ncc(F)c(N[C@H]4[C@@H](C(N)=O)[C@@H]5C=C[C@H]4C5)n3)cc2C(F)(F)F)CC1 [compound 151, (1R,2R,3S,4S)-N4-(3-Aminocarbonylbicyclo[2.2.1]hept-5-en-2-yl)-5-fluoro-N2-[4-(1-methylpiperidin-4-yloxy)-3-trifluoromethylphenyl)-2,4-pyrimidinediamine] | ≤ 100 nM | ≤ 100 nM |  |  | 
CN1CCN(c2ccc(Nc3ncc(F)c(NC4CCCC4C(N)=O)n3)cc2Cl)CC1 (stereo not drawn) [compound 202, N4-(2-Carboxamidocyclopentyl)-N2-[3-chloro-4-(4-methylpiperazino)phenyl]-5-fluoro-2,4-pyrimidinediamine] |  |  | 100 to 1000 nM | 100 to 1000 nM | 
Cc1cc(Nc2ncc(F)c(N[C@H]3CC[C@H](C(N)=O)C3)n2)ccc1N1CCN(C)CC1 [compound 220, (1S,3S)-N4-(3-Aminocarbonylcyclopent-1-yl)-5-fluoro-N2-[3-methyl-4-(4-methylpiperazin-1-yl)phenyl]-2,4-pyrimidinediamine] |  |  | 1000 to 10000 nM | 1000 to 10000 nM | 
Cc1cc(Nc2ncc(F)c(N[C@@H]3CC=CC[C@H]3C(N)=O)n2)ccc1N1CCN(C)CC1 (racemic) [compound 229, Racemic-N4-(2-aminocarbonylcyclohex-4-ene-1-yl)-5-fluoro-N2-[3-methyl-4-(4-methylpiperazin-1-yl)phenyl]-2,4-pyrimidinediamine] |  |  | > 10000 nM | > 10000 nM | 
CS(=O)(=O)N1CCc2cc(Nc3ncc(F)c(N[C@H]4[C@@H](C(N)=O)[C@@H]5C=C[C@H]4C5)n3)ccc21 [compound 188, (1R,2R,3S,4S)-N4-(3-Aminocarbonylbicyclo[2.2.1]hept-5-en-2-yl)-5-fluoro-N2-[1-methylsulfonyl-2,3-dihydro-indol-5-yl]-2,4-pyrimidinediamine] | ≤ 100 nM | ≤ 100 nM |  |  | 
Cc1cc(Nc2ncc(F)c(NC3C4C=CC(C4)C3C(N)=O)n2)ccc1N1CCCC1 (racemic) [Compound 288, Racemic-(2-exo,3-exo)-N4-(3-aminocarbonylbicyclo[2.2.1]hept-5-en-2-yl)-5-fluoro-N2-[3-methyl-4-(pyrrolidino)phenyl]-2,4-pyrimidinediamine] |  |  | 100 to 1000 nM | 100 to 1000 nM | 
Cc1cc(Nc2ncc(F)c(NC3CCCC3C(N)=O)n2)ccc1N1CCN(C)CC1 (stereo not drawn) [compound 206, (cis)-N4-(2-Carboxamidocyclopent-1-yl)-5-fluoro-N2-[3-methyl-4-(4-methylpiperazino)phenyl]-2,4-pyrimidinediamine] |  |  | 100 to 1000 nM | 100 to 1000 nM | ≤ 1000 nM
CN(C)CCn1ccc2ccc(Nc3ncc(F)c(NC4C5CCC(C5)C4C(=O)NC4CC4)n3)cc21 (racemic) [compound 179, Racemic-(2-exo,3-exo)-N4-[3-cyclopropylaminocarbonylbicyclo[2.2.1]hept-2-yl)-N2-[1-(2-dimethylaminoethyl)indol-6-yl]-5-fluoro-2,4-pyrimidinediamine] | 100 to 1000 nM | 100 to 1000 nM |  |  | 
NC(=O)[C@@H]1CCC[C@@H]1Nc1nc(Nc2ccc3c(c2)NCC3)ncc1F (racemic) [compound 156, Racemic-cis-N4-(2-aminocarbonylcyclopent-1-yl)-N2-(2,3-dihydroindol-6-yl)-5-fluoro-2,4-pyrimidinediamine] | 1000 to 10000 nM | 1000 to 10000 nM |  |  | 
CN1CCN(CCn2ccc3cc(Nc4ncc(F)c(NC5C6C=CC(C6)C5C(N)=O)n4)ccc32)CC1 (racemic) [compound 134, Racemic-(2-exo,3-exo)-N4-(3-aminocarbonylbicyclo[2.2.1]hept-5-en-2-yl)-5-fluoro-N2-{1-[2-(4-methylpiperazin-1-yl)ethyl]indol-5-yl}-2,4-pyrimidinediamine] | 100 to 1000 nM | 100 to 1000 nM |  |  | 
Cc1cc(Nc2ncc(F)c(NC3C4C=CC(C4)C3C(=O)NC(C)C)n2)ccc1N1CCN(C)CC1 (racemic) [compound 162] | ≤ 100 nM | ≤ 100 nM |  |  | 
Cc1cc(Nc2ncc(F)c(N[C@H]3[C@@H](C(N)=O)[C@@H]4C=C[C@H]3C4)n2)ccc1N1CCN(C)CC1 [compound 121, (1R,2R,3S,4S)-N4-(3-Aminocarbonylbicyclo[2.2.1]hept-5-ene-2-yl)-5-fluoro-N2-[3-methyl-4-(4-methylpiperazin-1-yl)phenyl]-2,4-pyrimidinediamine Adipic Acid Salt] | ≤ 100 nM | ≤ 100 nM |  |  | 
